What was measured:
Weizen = test: Growth inhibition in cereals, greenhouse tray test, sprayed at 3-leaf stage; assay type: in vivo; conditions: % of growth increment of untreated controls (100% = growth standstill), read-out: Wuchsshemmung in % bei Weizen; for pest or weed control at 1250 g/ha: 1,25 kg/ha; for pest or weed control at 2500 g/ha: 2,5 kg/ha
Source text: (§1) In Schalenversuchen im Gewächshaus werden junge Getreidepflanzen (Weizen, Gerste, Roggen) im 3-Blattstadium mit erfindungsgemäßen Verbindungen in verschiedenen Wirkstoffkonzentrationen (kg/ha) tropfnaß gespritzt. […]

Roggen = test: as above; assay type: in vivo; conditions: % of growth increment of untreated controls, read-out: Wuchsshemmung in % bei Roggen; for pest or weed control at 1250 g/ha: 1,25 kg/ha; for pest or weed control at 2500 g/ha: 2,5 kg/ha
Source text: as §1

Reispflanzen [1] = test: Growth inhibition in paddy rice, small plots; conditions: Oryza sativa, 504 h, read-out: Wuchsshemmung (%)
Source text: (§4) Reispflanzen werden in Kleinparzellen (2 m x 2 m) angezogen und im Stadium der maximalen Bestockung mit erfindungsgemäßen Verbindungen behandelt. Die Substanzen werden sowohl durch Spritzung appliziert als auch in das Wasser gegeben.
(§5) 3 Wochen nach der Behandlung wird bei allen Pflanzen der Zuwachs gemessen und die Wuchshemmung in % des Zuwachses der Kontrollpflanzen berechnet. Es wird außerdem auf eine mögliche phytotoxische Wirkung der Verbindungen geachtet.
(§6) Die Wuchshemmung wird als prozentualer Wert ermittelt, wobei 100% den Stillstand des Wachstums und 0% ein Wachstum entsprechend dem der unbehandelten Kontrollpflanzen bedeuten.

Gerste = test: Growth inhibition in cereals, greenhouse tray test, sprayed at 3-leaf stage; assay type: in vivo; conditions: % of growth increment of untreated controls, read-out: Wuchsshemmung in % bei Gerste; for pest or weed control at 1250 g/ha: 1,25 kg/ha; for pest or weed control at 2500 g/ha: 2,5 kg/ha
Source text: (§2) In Schalenversuchen im Gewächshaus werden junge Getreidepflanzen (Weizen, Gerste, Roggen) im 3-Blattstadium mit erfindungsgemäßen Verbindungen in verschiedenen Wirkstoffkonzentrationen (kg/ha) tropfnaß gespritzt.
(§3) Es wird außerdem die phytotoxische Wirkung der Verbindung beobachtet.

Sojabohnen [2] = test: Growth inhibition in soybeans; conditions: Glycine max, 504 h, read-out: Wuchsshemmung (%)
Source text: (§7) Etwa 10 cm große Sojabohnen werden mit den Wirkstoffzubereitungen tropfnaß bespritzt. Nach 3 Wochen wird bonitiert.
as §6

Reispflanzen [3] = conditions: in vivo
Source text: as §4, §5, §6

[4] = system: Getreidepflanzen (Weizen, Gerste, Roggen); test: Phytotoxic effect observed in the cereal growth inhibition test; assay type: in vivo; conditions: cereals; one cell for 2,5 and 1,25 kg/ha
Source text: as §2, §3

Sojabohnen [5] = conditions: in vivo
Source text: as §7, §6

SMILES: CCc1cccc(CC)c1-n1cncc1C(=O)NN(C)C [Beispiel 66]
- pest or weed control at 1250 g/ha (Weizen): 14%
- pest or weed control at 2500 g/ha (Weizen): 22%
- pest or weed control at 1250 g/ha (Roggen): 18%
- pest or weed control at 2500 g/ha (Roggen): 25%
- pest or weed control at 620 g/ha (Reispflanzen [1]): 12%
- pest or weed control at 1250 g/ha (Reispflanzen [1]): 21%
- pest or weed control at 1250 g/ha (Gerste): 19%
- pest or weed control at 2500 g/ha (Gerste): 31%
- pest or weed control at 2500 g/ha (Sojabohnen [2]): 18%
- Phytotox. Wirkung (Reispflanzen [3]): keine Schäden
- Phytotox. Wirkung [4]: keine Schäden
- Phytotox. Wirkung (Sojabohnen [5]): keine Schäden

SMILES: CCc1cccc(CC)c1-n1cncc1C(=O)NO [Beispiel 68]
- pest or weed control at 1250 g/ha (Weizen): 20%
- pest or weed control at 2500 g/ha (Weizen): 24%
- pest or weed control at 1250 g/ha (Roggen): 21%
- pest or weed control at 2500 g/ha (Roggen): 27%
- pest or weed control at 620 g/ha (Reispflanzen [1]): 18%
- pest or weed control at 1250 g/ha (Reispflanzen [1]): 25%
- pest or weed control at 1250 g/ha (Gerste): 21%
- pest or weed control at 2500 g/ha (Gerste): 34%
- pest or weed control at 2500 g/ha (Sojabohnen [2]): 26%
- Phytotox. Wirkung (Reispflanzen [3]): keine Schäden
- Phytotox. Wirkung [4]: keine Schäden
- Phytotox. Wirkung (Sojabohnen [5]): keine Schäden

SMILES: CCc1cccc(CC)c1-n1cncc1C(=O)NNC(N)=O [Beispiel 70]
- pest or weed control at 1250 g/ha (Weizen): 12%
- pest or weed control at 2500 g/ha (Weizen): 22%
- pest or weed control at 1250 g/ha (Roggen): 21%
- pest or weed control at 2500 g/ha (Roggen): 25%
- pest or weed control at 620 g/ha (Reispflanzen [1]): 14%
- pest or weed control at 1250 g/ha (Reispflanzen [1]): 21%
- pest or weed control at 1250 g/ha (Gerste): 18%
- pest or weed control at 2500 g/ha (Gerste): 27%
- pest or weed control at 2500 g/ha (Sojabohnen [2]): 19%
- Phytotox. Wirkung (Reispflanzen [3]): keine Schäden
- Phytotox. Wirkung [4]: keine Schäden
- Phytotox. Wirkung (Sojabohnen [5]): keine Schäden

SMILES: CCc1cccc(CC)c1-n1cncc1C(=O)n1cncn1 [Beispiel 76]
- pest or weed control at 1250 g/ha (Weizen): 13%
- pest or weed control at 2500 g/ha (Weizen): 21%
- pest or weed control at 1250 g/ha (Roggen): 15%
- pest or weed control at 2500 g/ha (Roggen): 23%
- pest or weed control at 620 g/ha (Reispflanzen [1]): 14%
- pest or weed control at 1250 g/ha (Reispflanzen [1]): 19%
- pest or weed control at 1250 g/ha (Gerste): 17%
- pest or weed control at 2500 g/ha (Gerste): 27%
- pest or weed control at 2500 g/ha (Sojabohnen [2]): 21%
- Phytotox. Wirkung (Reispflanzen [3]): keine Schäden
- Phytotox. Wirkung [4]: keine Schäden
- Phytotox. Wirkung (Sojabohnen [5]): keine Schäden

SMILES: CCc1cccc(CC)c1-n1cncc1COCc1ccccc1C [Beispiel 95]
- pest or weed control at 1250 g/ha (Weizen): 14%
- pest or weed control at 2500 g/ha (Weizen): 19%
- pest or weed control at 1250 g/ha (Roggen): 15%
- pest or weed control at 2500 g/ha (Roggen): 22%
- pest or weed control at 620 g/ha (Reispflanzen [1]): 14%
- pest or weed control at 1250 g/ha (Reispflanzen [1]): 18%
- pest or weed control at 1250 g/ha (Gerste): 17%
- pest or weed control at 2500 g/ha (Gerste): 25%
- pest or weed control at 2500 g/ha (Sojabohnen [2]): 20%
- Phytotox. Wirkung (Reispflanzen [3]): keine Schäden
- Phytotox. Wirkung [4]: keine Schäden
- Phytotox. Wirkung (Sojabohnen [5]): keine Schäden

SMILES: CCc1cccc(CC)c1-n1cncc1C(=O)NS(=O)(=O)c1ccccc1Cl [Beispiel 103]
- pest or weed control at 1250 g/ha (Weizen): 16%
- pest or weed control at 2500 g/ha (Weizen): 23%
- pest or weed control at 1250 g/ha (Roggen): 16%
- pest or weed control at 2500 g/ha (Roggen): 27%
- pest or weed control at 620 g/ha (Reispflanzen [1]): 15%
- pest or weed control at 1250 g/ha (Reispflanzen [1]): 21%
- pest or weed control at 1250 g/ha (Gerste): 19%
- pest or weed control at 2500 g/ha (Gerste): 29%
- pest or weed control at 2500 g/ha (Sojabohnen [2]): 22%
- Phytotox. Wirkung (Reispflanzen [3]): keine Schäden
- Phytotox. Wirkung [4]: keine Schäden
- Phytotox. Wirkung (Sojabohnen [5]): keine Schäden

SMILES: CCc1cccc(CC)c1-n1cncc1C(=O)OC(=O)c1cncn1-c1c(CC)cccc1CC [Beispiel 115]
- pest or weed control at 1250 g/ha (Weizen): 14%
- pest or weed control at 2500 g/ha (Weizen): 24%
- pest or weed control at 1250 g/ha (Roggen): 24%
- pest or weed control at 2500 g/ha (Roggen): 31%
- pest or weed control at 620 g/ha (Reispflanzen [1]): 19%
- pest or weed control at 1250 g/ha (Reispflanzen [1]): 28%
- pest or weed control at 1250 g/ha (Gerste): 19%
- pest or weed control at 2500 g/ha (Gerste): 38%
- pest or weed control at 2500 g/ha (Sojabohnen [2]): 15%
- Phytotox. Wirkung (Reispflanzen [3]): keine Schäden
- Phytotox. Wirkung [4]: keine Schäden
- Phytotox. Wirkung (Sojabohnen [5]): keine Schäden

Source: patent EP0185961A2, “1-Phenyl-imidazole-5-carboxylic acid derivatives, process for their preparation and their use as growth regulators” (HOECHST AKTIENGESELLSCHAFT, priority 1984, dated 1986)
